Source: ChEMBL document CHEMBL2396591, “Identification of potent and orally bioavailable nucleotide competing reverse transcriptase inhibitors: in vitro and in vivo optimization of a series of benzofurano[3,2-d]pyrimidin-2-one derived inhibitors” (Bioorg Med Chem Lett, 2013)
≈ marks a conversion by molar mass, not a printed value.

Assays:
[1] = Octanol-phosphate buffer partition coefficient, log D of the compound at pH 7.4; assay type: physicochemical
[2] = Oral bioavailability in rat at 5 mg/kg; assay type: ADME, organism-based; settings: in vivo
Rattus norvegicus = assay: Clearance in rat at 2 mg/kg, iv; assay type: ADME, organism-based; parameters: dose 2 mg/kg, route intravenous; settings: in vivo
[3] = Cmax in rat at 5 mg/kg, po; assay type: ADME, organism-based; parameters: dose 5 mg/kg, route oral; settings: in vivo
[4] = Aqueous solubility of the compound in phosphate buffer at pH 2 after 24 hrs; assay type: physicochemical
[5] = Aqueous solubility of the compound in phosphate buffer at pH 6.8 after 24 hrs; assay type: physicochemical

logD [1]	bioavailability [2] [%]	CL (Rattus norvegicus) [%]	Cmax [3] [nM]	solubility at 24 h [4] [µg/mL]	solubility at 24 h [5] [µg/mL]	Compound
1.5	–	–	–	–	–	Cn1cc(-c2cnc3oc4c(-c5cnn(C)c5)nc(=O)n(CCC5CCCO5)c4c3c2)cn1 (stereo not drawn)
0.9	–	–	–	–	–	Cn1cc(-c2cnc3oc4c(-c5ccn(C)n5)nc(=O)n(CCC5CCCO5)c4c3c2)cn1 (stereo not drawn)
1.5	–	–	–	–	–	Cn1cc(-c2cnc3oc4c(-c5cscn5)nc(=O)n(CCC5CCCO5)c4c3c2)cn1 (stereo not drawn)
2.2	88	18	1600	< 0.1	< 0.1	CC[C@H]1C[C@@H](n2c(=O)nc(-c3cnn(C)c3)c3oc4cnc(-c5cnn(C)c5)cc4c32)CCO1 (relative stereo)
2.2	–	–	–	–	–	CCn1cc(-c2nc(=O)n(CCC3CCCO3)c3c2oc2ncc(-c4cnn(C)c4)cc23)cn1 (stereo not drawn)
3	35	18	460	0.2 (≈ 0.435 µM)	0.2 (≈ 0.435 µM)	CC[C@H]1C[C@@H](n2c(=O)nc(-c3cnn(C)c3)c3oc4ccc(-c5cnn(C)c5)nc4c32)CCO1 (relative stereo)
2.7	69	9.4	3100	> 480	0.6 (≈ 1.31 µM)	CC[C@H]1C[C@@H](n2c(=O)nc(-c3cnn(C)c3)c3oc4ccc(-c5cn(C)cn5)nc4c32)CCO1 (relative stereo)
2.5	–	–	–	–	–	CNc1ccc(-c2nc(=O)n(CCC3CCOCC3)c3c2oc2ncc(-c4cnn(C)c4)cc23)cn1
2.6	–	–	–	–	–	CC[C@H]1C[C@H](n2c(=O)nc(-c3ccc(NC)nc3)c3oc4ncc(-c5cnn(C)c5)cc4c32)CCO1 (racemic)
2.6	–	–	–	420 (≈ 914 µM)	5.3 (≈ 11.5 µM)	CC[C@H]1C[C@@H](n2c(=O)nc(-c3cnn(C)c3)c3oc4cnc(-c5cn(C)cn5)cc4c32)CCO1 (relative stereo)
2.8	–	–	–	–	–	COc1ccc(-c2nc(=O)n(CCC3CCCO3)c3c2oc2ncc(-c4cnn(C)c4)cc23)cn1 (stereo not drawn)
3	–	–	–	< 0.1	< 0.1	CC[C@H]1C[C@@H](n2c(=O)nc(-c3cnn(C)c3)c3oc4ccc(-c5cnn(C)c5)cc4c32)CCO1 (relative stereo)
3.4	–	–	–	–	–	CNc1ccc(-c2nc(=O)n(CCC3CC(C)(C)CO3)c3c2oc2ncc(-c4cnn(C)c4)cc23)cn1 (stereo not drawn)
–	36	37	140	–	–	CNc1ccc(-c2nc(=O)n(CC[C@@H]3CCCO3)c3c2oc2ncc(-c4cnn(C)c4)cc23)cn1
2.7	–	–	–	–	–	CNc1ccc(-c2nc(=O)n(CCC3CCCO3)c3c2oc2ncc(-c4cnn(C)c4)cc23)cn1 (racemic)
2.6	51	13	1200	> 1000	5 (≈ 10.9 µM)	CC[C@H]1C[C@@H](n2c(=O)nc(-c3cnn(C)c3)c3oc4ccc(-c5cn(C)cn5)cc4c32)CCO1 (relative stereo)
1.7	–	–	–	–	–	Cn1cc(-c2cnc3oc4c(-c5cccnc5)nc(=O)n(CCC5CCCO5)c4c3c2)cn1 (stereo not drawn)

logD [1]	bioavailability [2] [%]	CL (Rattus norvegicus) [%]	Cmax [3] [nM]	solubility at 24 h [4] [µg/mL]	solubility at 24 h [5] [µg/mL]	Compound
3.2	–	–	–	–	–	CNc1ccc(-c2nc(=O)n(CCC3CCCCO3)c3c2oc2ncc(-c4cnn(C)c4)cc23)cn1 (stereo not drawn)
2.8	–	–	–	–	–	COc1cc(-c2nc(=O)n(CCC3CCCO3)c3c2oc2ncc(-c4cnn(C)c4)cc23)ccn1 (stereo not drawn)
2.3	–	–	–	> 920	106 (≈ 231 µM)	CC[C@H]1C[C@@H](n2c(=O)nc(-c3cnn(C)c3)c3oc4ccc(-c5cncn5C)cc4c32)CCO1 (relative stereo)
1.9	–	–	–	–	–	CNc1ccc(-c2nc(=O)n(CCC3CCCO3)c3c2oc2ncc(-c4cnn(C)c4)cc23)nc1 (stereo not drawn)
2.7	94	4.6	8900	7.9 (≈ 16.3 µM)	2.1 (≈ 4.33 µM)	CC[C@H]1C[C@@H](n2c(=O)nc(-c3cnn(C)c3)c3oc4cc(C#N)c(-c5cnn(C)c5)nc4c32)CCO1 (relative stereo)
1.8	–	–	–	–	–	Cn1cc(-c2cnc3oc4c(-c5ccncc5)nc(=O)n(CCC5CCCO5)c4c3c2)cn1 (stereo not drawn)
3.2	–	–	–	–	–	CNc1ccc(-c2nc(=O)n(CCC3CCC(C)O3)c3c2oc2ncc(-c4cnn(C)c4)cc23)cn1 (stereo not drawn)
1.5	–	–	–	–	–	Cn1cc(-c2cnc3oc4c(-c5cn(C)nn5)nc(=O)n(CCC5CCCO5)c4c3c2)cn1 (stereo not drawn)
2.9	34	19	1100	–	–	CC[C@H]1C[C@@H](n2c(=O)nc(-c3ccc(NC)nc3)c3oc4ncc(-c5cnn(C)c5)cc4c32)CCO1 (racemic)
3.5	–	–	–	–	–	COc1ccc(-c2nc(=O)n(CCC3CCCO3)c3c2oc2ncc(-c4cnn(C)c4)cc23)cc1 (stereo not drawn)
2.9	–	–	–	–	–	CCC1(OC)CC(n2c(=O)nc(-c3ccc(NC)nc3)c3oc4ncc(-c5cnn(C)c5)cc4c32)C1 (stereo not drawn)
3.3	–	–	–	–	–	CNc1ccc(-c2nc(=O)n(C(C)CC3CCCO3)c3c2oc2ncc(-c4cnn(C)c4)cc23)cn1 (stereo not drawn)
2.5	–	–	–	–	–	COc1cncc(-c2nc(=O)n(CCC3CCCO3)c3c2oc2ncc(-c4cnn(C)c4)cc23)c1 (stereo not drawn)
2	–	–	–	–	–	CN(C)c1cnc(-c2nc(=O)n(CCC3CCCO3)c3c2oc2ncc(-c4cnn(C)c4)cc23)cn1 (stereo not drawn)
2.5	–	–	–	0.2 (≈ 0.414 µM)	0.2 (≈ 0.414 µM)	CC[C@H]1C[C@@H](n2c(=O)nc(-c3cnn(C)c3)c3oc4cc(C#N)c(-c5cnn(C)c5)cc4c32)CCO1 (relative stereo)
1.8	–	–	–	> 1000	2.8 (≈ 6.09 µM)	CC[C@H]1C[C@@H](n2c(=O)nc(-c3cnn(C)c3)c3oc4ncc(-c5cn(C)cn5)cc4c32)CCO1 (relative stereo)
